Literature values in patent US20060182828A1, “METHODS OF REDUCING LIPID PEROXIDATION AND ACHIEVING RELATED HEALTH BENEFITS BY THE ADMINISTRATION OF TOCOPHEROL AND SESAME LIGNANS” (priority 2005, published 2006).

Assays:
LDL [1] = tested on: LDL
[2] = tested on: peroxisomal palmitoyl Co-A oxidation; settings: in vivo
[3] = rats
mouse skin papillomas = settings: induced with 12-0-tetradecanoylphorbol 1 acetate
[4] = tested on: sterol regulatory element binding protein-1 (SREBP-1) m RNA; settings: 0.4% sesamin diet group
LDL [5] = settings: Cu-ascorbate induced
heart disease = settings: supplementation with 30 IU to 100 IU
[6] = 32.4 then 64.8 mg, total of 8 weeks
[7] = hypercholesterolemic men, before

Q: For Cc1c(C)c2c(c(C)c1O)CC[C@@](C)(CCC[C@H](C)CCC[C@H](C)CCCC(C)C)O2 [alpha-tocopherol], which “formation of 4-hydroxy-2-nonenal (4-HNE), of control values” (“formation of 4-hydroxy-2-nonenal (4-HNE)” below) (LDL [1]) is on record?
A: absolutely no effect

Q: And the “formation of malondialdehyde (MDA), of control values” (from here on “formation of malondialdehyde (MDA)”) (LDL [1])?
A: absolutely no effect

Q: Which “increase of peroxisomal palmitoyl Co-A oxidation rate” value [2] does the source give for c1cc2c(cc1[C@H]1OC[C@H]3[C@@H]1CO[C@@H]3c1ccc3c(c1)OCO3)OCO2 [episesamin] here?
A: 5.1 fold

Q: For Cc1c(O)cc2c(c1C)O[C@](C)(CCC[C@H](C)CCC[C@H](C)CCCC(C)C)CC2 [gamma-tocopherol], which “gamma tocopherol level in serum” value ([3]; serum) is on record?
A: 3 micromoles per liter

Q: And the “gamma tocopherol levels in tissues (liver, kidney, brain)” value ([3]; tissue)?
A: 3 nmol per gram

Q: For CC(C)(Sc1cc(C(C)(C)C)c(O)c(C(C)(C)C)c1)Sc1cc(C(C)(C)C)c(O)c(C(C)(C)C)c1 [probucal], which “formation of 4-hydroxy-2-nonenal (4-HNE)” value (LDL [1]) is on record?
A: absolutely no effect

Q: What about the “formation of malondialdehyde (MDA)” value (LDL [1]) of the same molecule?
A: absolutely no effect

Q: Which “reduction of formation of mouse skin papillomas” value (mouse skin papillomas) does the source give for Oc1ccc(C=Cc2cc(O)cc(O)c2)cc1 [resveratrol] here?
A: 60%

Q: Which results are given for c1cc2c(cc1[C@H]1OC[C@H]3[C@@H]1CO[C@@H]3c1ccc3c(c1)OCO3)OCO2 [sesamin]?
A: SREBP-1 m RNA level relative to rats fed a sesamin-free diet [4]: one-half; LDL cholesterol, after [6]: 156.4; apolipoprotein B, after [6]: 168.5; changes in HDL cholesterol [6]: no changes; changes in triglycerides [6]: no changes; mean total cholesterol, after [6]: 248.3; LDL cholesterol, before [7]: 187.1; apolipoprotein B, before [7]: 188.8; mean total cholesterol, before [7]: 272.0; increase of peroxisomal palmitoyl Co-A oxidation rate [2]: 1.6 fold

Q: For Oc1cc2c(cc1[C@H]1OC[C@H]3[C@@H]1CO[C@@H]3c1ccc3c(c1)OCO3)OCO2 [sesaminol], which “lag time longer than tetrahydrocurcumin” value (LDL [5]) is on record?
A: 567%

Q: What about the “lag time of LDL oxidation” value (LDL [5]) of the same molecule?
A: 510 min

Q: And the “formation of 4-hydroxy-2-nonenal (4-HNE)” value (LDL [1])?
A: 17%

Q: And the “formation of malondialdehyde (MDA)” value (LDL [1])?
A: 13%

Q: And the “inhibited TBARS formation” value (LDL [1]; 0.1 micromolar concentration)?
A: 82.8%

Q: And the “protection against TBARS formation” value (LDL [1]; one micromolar concentration)?
A: 100%

Q: And the IC50 (LDL [1]; read-out: IC50, lipid peroxidation of LDL)?
A: 0.036 ± 0.01 µM

Q: For Oc1ccc2c(c1)OCO2 [sesamol], which “reduction of formation of mouse skin papillomas” value (mouse skin papillomas) is on record?
A: 50%

Q: Which “lowers the risk of heart disease” value (heart disease) does the source give for vitamin E here?
A: 41%
